Test results published in patent publication US12186309B2, “RNA virus inhibitor compounds and uses thereof” (The Governors of the University of Alberta, priority 2021, dated 2025).
Where two headings read alike, the source gives them in different places.

Experiments:
SARS-CoV-2 = SARS-CoV-2 plaque reduction assay in Vero E6 cells; assay type: cell-based; conditions: read-out: SARS-CoV-2 Antiviral EC50
SARS-CoV-2 3CLP = SARS-CoV-2 3CLP (Severe acute respiratory syndrome coronavirus 2 (2019-nCoV) (SARS-CoV-2), UniProt P0DTD1); assay: SARS-CoV-2 3CLP inhibition FRET assay; assay type: biochemical; conditions: 80 nM SARS-CoV-2 3CLP, 100 μM FRET substrate, pH 7.8, 37° C., 10 min preincubation; read-out: 3CL Protease IC50
in vitro = assay type: cell-based
Description: Cell viability was measured using the CellTiter-Glo luminescent cell viability assay (Promega). Separately A549 (human lung epithelial) cells and VeroE6 cells were seeded at 5×10^3 cells/well in 96-well plates and incubated overnight before treatment. Compounds were solubilized in DMSO and added to cells in an eight-point four-fold serial dilution (200 μM to 0.0122 μM). Cells were incubated in the presence of compounds for 24 hours before addition of the luminescence substrate and measurement of ATP activity according to manufacturer's instructions. The percentage of viable cells was calculated relative to cells treated with solvent alone (0.5% DMSO).

[1] = Severe acute respiratory syndrome coronavirus 2, Vero C1008, Vero E6 cells, SARS-CoV-2/CANADA/VIDO 01/2020, MOI 0.0001 pfu/cell, plaques counted after 48 h
[2] = Severe acute respiratory syndrome coronavirus 2, Vero C1008, 48 h

Row | Compound | EC50 (SARS-CoV-2; [1]) | IC50 (SARS-CoV-2 3CLP) | CC50 at 24 h (in vitro; African green monkey) | CC50 at 24 h (in vitro; human) | EC50 (SARS-CoV-2; [2])
1 | CC(C)C[C@@H](C(=O)N[C@H](C#N)C[C@@H]1CCCNC1=O)N1C(=O)c2ccccc2C1=O [Compound 1, (2S)—N-{(1S)-1-cyano-2-[(3S)-2-oxopiperidin-3-yl]ethyl}-2-(1,3-dioxo-1,3-dihydro-2H-isoindol-2-yl)-4-methylpentanamide] | > 10 µM | 8.5 µM | – | – | –
2 | CC(C)C[C@@H](C(=O)N[C@H](C#N)C[C@@H]1CCCNC1=O)N1C(=O)CC(C)(C)C1=O [Compound 2, (2S)—N-{(1S)-1-cyano-2-[(3S)-2-oxopiperidin-3-yl]ethyl}-2-(3,3-dimethyl-2,5-dioxopyrrolidin-1-yl)-4-methylpentanamide] | > 10 µM | 10.7 µM | – | – | –
3 | CC(C)C[C@@H](C(=O)N[C@H](C#N)C[C@@H]1CCCNC1=O)N1C(=O)C[C@H](c2ccccc2)C1=O [Compound 5, (2S)—N-{(1S)-1-cyano-2-[(3S)-2-oxopiperidin-3-yl]ethyl}-2-[(3R)-2,5-dioxo-3-phenylpyrrolidin-1-yl]-4-methylpentanamide] | > 10 µM | 6.9 µM | – | – | –
4 | CC(C)C[C@@H](C(=O)N[C@H](C#N)C[C@@H]1CCCNC1=O)n1cccc(NC(=O)OC(C)(C)C)c1=O [Compound 7, tert-butyl {1-[(2S)-1-({(1S)-1-cyano-2-[(3S)-2-oxopiperidin-3-yl]ethyl}amino)-4-methyl-1-oxopentan-2-yl]-2-oxo-1,2-dihydropyridin-3-yl}carbamate] | < 10 µM | – | – | – | –
5 | CC(C)(C)[C@H](NC(=O)C(F)F)C(=O)N1C[C@H]2[C@@H]([C@H]1C(=O)N[C@H](C#N)C[C@@H]1CCCNC1=O)C2(C)C [Compound 20, (1R,2S,5S)—N-{(1S)-1-cyano-2-[(3S)-2-oxopiperidin-3-yl]ethyl}-3-[N-(difluoroacetyl)-3-methyl-L-valyl]-6,6-dimethyl-3-azabicyclo[3.1.0]hexane-2-carboxamide] | – | – | > 200 µM | > 200 µM | < 5 µM
6 | [2H]C1([2H])CC[C@@H](C[C@@H](C#N)NC(=O)[C@@H]2[C@@H]3[C@H](CN2C(=O)[C@@H](NC(=O)C(F)F)C(C)(C)C)C3(C)C)C(=O)N1 [Compound 24, (1R,2S,5S)—N-{(1S)-1-cyano-2-[(3S)-2-oxo(6,6-^2H2)piperidin-3-yl]ethyl}-3-[N-(difluoroacetyl)-3-methyl-L-valyl]-6,6-dimethyl-3-azabicyclo[3.1.0]hexane-2-carboxamide] | – | – | > 200 µM | > 200 µM | < 5 µM
